Results on twelve compounds are retold here after US12552771B2, “Carboxylic acid containing azetidinyl compounds for the treatment of neurodegenerative diseases” (Celgene Corporation, priority 2021, dated 2026).

For orientation: EC50 means the concentration giving half of the maximal effect.

Structures are written as SMILES.

In this assay the target is T1, S1P5 receptors (Homo sapiens, UniProt Q9H228).
T1 construct: expressed in transfected cells; host or cells: CHO cells (membranes)
T1 sequence (Q9H228 whole entry): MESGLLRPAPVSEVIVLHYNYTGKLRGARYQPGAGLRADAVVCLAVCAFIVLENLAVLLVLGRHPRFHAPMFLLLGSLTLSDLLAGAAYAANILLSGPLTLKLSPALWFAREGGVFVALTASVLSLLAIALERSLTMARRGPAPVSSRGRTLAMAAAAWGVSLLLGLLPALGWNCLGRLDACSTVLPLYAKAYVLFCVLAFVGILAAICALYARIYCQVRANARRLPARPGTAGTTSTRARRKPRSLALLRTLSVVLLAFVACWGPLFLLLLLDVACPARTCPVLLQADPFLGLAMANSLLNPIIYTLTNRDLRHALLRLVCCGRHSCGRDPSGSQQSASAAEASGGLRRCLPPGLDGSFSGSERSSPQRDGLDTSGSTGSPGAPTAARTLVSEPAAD
Nature of the assay: [35S]-GTPγS binding assay with CHO-S1P5 receptor membranes. Type of assay: biochemical. Particulars: membranes of CHO cells expressing recombinant S1P5 receptors; measure of S1P5 agonism. The method in brief:
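Membranes from CHO cells expressing recombinant S1P5 were preincubated for 30 min at RT with compound, GDP and WGA SPA beads. The buffer was 20 mM HEPES, 10 mM MgCl2, 100 mM NaCl, 1 mM EDTA, 0.1% fatty-acid-free BSA and 30 μg/mL saponin, pH 7.4. [35S]GTPγS (200 pM final) was added for 40 min, and bound radioactivity read as agonism; S1P was the control.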
For `O=C(O)[C@@H]1CCN(Cc2ccc(C3CN(c4c(Cl)cccc4Cl)C3)cc2)C1` [Compound 12b, (R)-1-(4-(1-(2,6-dichlorophenyl)azetidin-3-yl)benzyl)pyrrolidine-3-carboxylic acid], the concentration for a half-maximal effect (EC50) was not above 10 nM.

As for `Cc1cc(C2CN(c3ccc(C4CC4)cc3)C2)cc(C)c1CN1CCC(C(=O)O)CC1` [Compound 48, 1-(4-(1-(4-cyclopropylphenyl)azetidin-3-yl)-2,6-dimethylbenzyl)piperidine-4-carboxylic acid], the half-maximal effective concentration (EC50) lay within 1000 to 10000 nM.

For `Cc1cc(C(C)(C)N2CCC(C(=O)O)CC2)cc(C)c1C1CN(c2c(Cl)cccc2Cl)C1` [Compound 86, 1-(2-(4-(1-(2,6-dichlorophenyl)azetidin-3-yl)-3,5-dimethylphenyl)propan-2-yl)piperidine-4-carboxylic acid], the EC50 was not above 10 nM.

As to `O=C(O)C1CCN(C2CCc3cc(C4CN(c5c(Cl)cccc5Cl)C4)ccc32)C1` (stereo not drawn) [Compound 7, 1-(5-(1-(2,6-dichlorophenyl)azetidin-3-yl)-2,3-dihydro-1H-inden-1-yl)pyrrolidine-3-carboxylic acid], the EC50 was not above 10 nM.

Turning to `Cc1cc(C2CN(c3c(Cl)cccc3Cl)C2)ccc1C(C)N1CCC(C(=O)O)CC1` (single isomer, unassigned) [Compound 16b, 1-(1-(4-(1-(2,6-dichlorophenyl)azetidin-3-yl)-2-methylphenyl)-ethyl)piperidine-4-carboxylic acid], the EC50 is not above 10 nM.

On to `CC(C)(c1ccc(C2CN(c3c(Cl)cccc3Cl)C2)cc1)N1CCC(C(=O)O)CC1` [Compound 17, 1-(2-(4-(1-(2,6-dichlorophenyl)azetidin-3-yl)phenyl)propan-2-yl)piperidine-4-carboxylic acid], for which the EC50 was not above 10 nM.

Turning to `Cc1cc(C2CN(c3c(C)cccc3C(F)F)C2)cc(C)c1CN1CCC(C(=O)O)CC1` [Compound 72, 1-(4-(1-(2-(difluoromethyl)-6-methylphenyl)azetidin-3-yl)-2,6-dimethyl-benzyl)piperidine-4-carboxylic acid], the concentration for a half-maximal effect (EC50) is 10 to 100 nM.

Take `Cc1cc(CN2CCC(C(=O)O)CC2)cnc1C1CN(c2c(Cl)cccc2Cl)C1` [Compound 79, 1-((6-(1-(2,6-dichlorophenyl)azetidin-3-yl)-5-methylpyridin-3-yl)methyl)piperidine-4-carboxylic acid]: the EC50 lay within 100 to 1000 nM.

Turning to `O=C(O)C1CCN(C2CCc3cc(C4CN(c5c(Cl)cccc5Cl)C4)ccc32)CC1` (single isomer, unassigned) [Compound 1b, 1-(5-(1-(2,6-dichlorophenyl)azetidin-3-yl)-2,3-dihydro-1H-inden-1-yl)piperidine-4-carboxylic acid], the concentration for a half-maximal effect (EC50) lay in the range of 100 to 1000 nM.

Take `O=C(O)C1CN(C2CCc3cc(C4CN(c5cccc(F)c5)C4)ccc32)C1` (single isomer, unassigned) [Compound 8b, 1-(5-(1-(3-fluorophenyl)azetidin-3-yl)-2,3-dihydro-1H-inden-1-yl)azetidine-3-carboxylic acid]: the EC50 fell in the range of 100 to 1000 nM.

Take `Cc1cc(C2CN(c3c(C)cccc3C#N)C2)cc(C)c1CN1CCC(C(=O)O)CC1` [Compound 74, 1-(4-(1-(2-cyano-6-methylphenyl)azetidin-3-yl)-2,6-dimethylbenzyl)-piperidine-4-carboxylic acid]: the EC50 is not above 10 nM.

Consider `CCc1cc(C2CN(c3c(Cl)cccc3Cl)C2)cc(C)c1CN1CCC(C(=O)O)CC1` [Compound 55, 1-(4-(1-(2,6-dichlorophenyl)azetidin-3-yl)-2-ethyl-6-methylbenzyl)-piperidine-4-carboxylic acid], for which the EC50 was not above 10 nM.
